Earlier results in patent publication US20090312281A1, “PROCESS FOR THE PREPARATION OF A PULVERULENT COMPOSITION AND PRODUCT AS OBTAINED” (INNOV'IA, priority 2006, published 2009).

Structure (SMILES)	Solubility in water at 60° C. (% weight/weight)
O=C(CO)[C@@H](O)[C@H](O)[C@H](O)CO [Fructose]	89
OC[C@H]1O[C@@](CO)(O[C@H]2O[C@H](CO)[C@@H](O)[C@H](O)[C@H]2O)[C@@H](O)[C@@H]1O [Sucrose]	71
